# Results: patent US20250154165A1, “MULTIANTENNARY GLYCOLIPID MIMETICS” (CONSEJO SUPERIOR DE INVESTIGACIONES CIENTÍFICAS (CSIC), priority 2021, published 2025)
# Columns and labels:
# [1] = tested on: LPS-induced inflammation in B6 mice; assay: Suppression of LPS-induced inflammation in vivo; settings: injected twice in a half hour time after LPS-treatment (FIG. 3)
# Description: FIG. 3. […] The in vivo capability of compound 12 in suppressing LPS-induced inflammation in B6 mice was assessed as indicated in the scheme.
# To determine the anti-inflammatory function in vivo, we assessed the capability of compound 12 in suppressing LPS-induced inflammation in B6 mice.
# ERK = assay: Signal transduction by multiplex bead array: ERK phosphorylation; type: cell-based; settings: comparing to LPS treatment alone (FIG. 4)
# Excerpt: (§1) FIG. 4. […] Compound 12, a representative compound of the invention, was examined in term of signal transduction to explore how the new compounds exert their suppressive effect, using the multiplex bead array.
# (§2) Using the multiplex bead array, we examined how the new compounds might exert their suppressive effect in term of signal transduction.
# STAT3 = assay: Signal transduction by multiplex bead array: STAT3 phosphorylation; type: cell-based; settings: comparing to LPS treatment alone (FIG. 4)
# Excerpt: as §1, §2
# [2] = tested on: Splenocytes treated with αGalCer; assay: Suppression of αGalCer-induced inflammation (splenocytes in vitro); type: cell-based, mouse; settings: splenocytes treated concurrently with compound and αGalCer (FIG. 5)
# Description: FIG. 5. […] Splenocytes were treated concurrently with the compounds of the invention and αGalCer to assess the suppressive function of compounds on αGalCer-induced inflammation, with several compounds showing prominent suppressive function.
# The whole spleen was surgically removed from a mouse and mechanically dissociated into a single cell suspension of splenocytes, which were then cultured in the complete RPMI 1640 medium (cRPMI). Human peripheral blood mononuclear cells (PBMCs) from healthy volunteers were collected from whole blood through gradient-centrifugation with Histopaque-1077 (Sigma-Aldrich).
# Splenocytes were treated concurrently with the compounds of the invention and αGalCer to assess their ability to suppress αGalCer-induced inflammation.
# [3] = tested on: OVA-induced AHR mouse model; assay: Suppression of OVA-induced airway hyperreactivity (AHR) in vivo; settings: OVA-induced AHR mouse model (FIG. 7)
# Description: FIG. 7. […] The capability of selected compounds 8, 12, 18, and 27 in suppressing Th2 inflammation in vivo was assessed using the OAV-induced AHR mouse model.
# For ovalbumin (OVA) challenge, mice were sensitized intraperitoneally (i.p.) with 50 μg of OVA with 2% alhydrogel adjuvant (InvivoGen). Mice were challenged three times with 50 μg of OVA on day 7 post-sensitization, either daily or every other day. Mice were sacrificed the day after the last OVA challenge. The scheme of the OT-1 adoptive transfer mouse model for examining the proliferation of CD8^+ T cells in adjuvanting OVA challenge is described in FIG. 13.
# Mice were anesthetized with 100 mg per kg body weight pentobarbital (Sigma-Aldrich), tracheotomised and mechanically ventilated via the FinePointe RC system (Buxco Research Systems, Wilmington, NC). Lung function was assessed by measuring lung resistance and dynamic compliance in response to increasing doses of aerosolized methacholine (1.25-40 mg/mL, Sigma-Aldrich).
# Using the Th2 OVA-induced AHR mouse model, we assessed the capability of selected compounds 8, 12, 18, and 27 in suppressing Th2 inflammation.
# B6 mice = assay: Adjuvancy function in vivo (serum IFNγ and IL-4 after injection)
# Description: FIG. 11. […] The adjuvancy capability of the selected compounds 8, 12, 18, 27, and 29 in vivo was assessed by measuring the serum level of IFNγ and IL-4 induced after injecting them into B6 mice.
# Besides assessing the ability of the new compounds to suppress inflammation, we also looked into their function to act as adjuvants, i.e. their ability to promote desirable immunological trends in the development of vaccines. We measured the in vivo adjuvancy capability of selected compounds 8, 12, 18, 27, and 29 in inducing IFNγ and IL-4 in B6 mice (FIG. 11).
# [4] = tested on: DC-maturation marker CD86 in the spleen of mice; assay: DC maturation in vivo (CD86 mRNA in spleen); settings: mice injected with the compound (FIG. 12)
# Description: FIG. 12. […] The capability of selected compounds 8, 12, 18, 27, and 29 in promoting DC maturation in vivo was assessed by the mRNA level of DC-maturation marker CD86 in the spleen of mice injected with the compounds of the invention.
# The capability of selected compounds 8, 12, 18, 27, and 29 in promoting DC maturation in vivo was assessed by the mRNA level of DC-maturation marker CD86 in the spleen of mice injected with the compounds of the invention.
# [5] = tested on: bone marrow-derived dendritic cells (BMDC) from MyD88 KO mice; assay: MyD88 dependency of IL-12p40 production (BMDCs in vitro); type: cell-based; settings: BMDC from MyD88 KO mice compared with BMDC from wild-type mice; dose-dependent (FIG. 15)
# Excerpt: FIG. 15. […] The effect was dose-dependent, and the difference became more pronounced at a higher concentration.
# To determine whether the adjuvancy function of the representative compound 12 is MyD88-dependent or not, we performed experiments with immune cells isolated from MyD88 knocked-out (KO) mice. […] Data are dose-dependent and differences become more pronounced at the higher concentrations. […] Taken together, the results support that compound 12 adjuvancy function is MyD88-dependent.
# [6] = 2 hours after injection (FIG. 11)
# [7] = 18 hours after injection (FIG. 11)
smiles,measurement,setting,value
CCCCCCCCCCCCNC(=O)C(COC1C(O)C(O)C(O)C2COC(=O)N21)NC(=O)CCCCCCCCCCC (stereo not drawn) [Compound 12],level of IL-6 in sera,[1],significantly suppressed
same,level of TNFα in sera,[1],significantly suppressed
same,phosphorylation of ERK,ERK,significantly reduced
same,phosphorylation of STAT3,STAT3,significant reduction of phosphorylation
same,suppressive function on αGalCer-induced inflammation,[2],prominent inflammation-suppressing function
same,suppression of airway hyperreactivity (AHR),[3],can suppress AHR onset
same,serum level of IFNγ induced,B6 mice; [6],significant capability in inducing
same,serum level of IL-4 induced,B6 mice; [6],significant capability in inducing
same,serum level of IFNγ induced,B6 mice; [7],significant detectable level
same,serum level of IL-4 induced,B6 mice; [7],significant detectable level
same,CD86 mRNA expression in the spleens of mice,[4],significant increase
same,IL-12p40 production in response to compound,[5],severely curtailed
